The record followed here is article PMC8458281, “Computational modeling and experimental validation of the EPI-X4/CXCR4 complex allows rational design of small peptide antagonists” (Communications Biology, 2021).

Common to all, as to assay type: binding, human
The subject of assay [1] is CXCR4 V112A. As to the kind of experiment: 12G5 antibody competition, 293T cells transfected with CXCR4 V112A. To be noted: IC50 on CXCR4 V112A relative to wt. The protocol: (§1) Fig. 4 The interactions of EPI-X4 and the EPI-X4 derivatives WSC02 and JM#21 with point-mutated CXCR4 were assessed by an antibody competition assay. Amino acid substitutions were introduced in the sequence of CXCR4 by site-directed mutagenesis, cloned into an IRES-eGFP expression vector, and transfected into 293 T cells. Afterward, cells were incubated with serially diluted EPI-X4 (a, b), WSC02 (c, d), or JM#21 (e, f) in presence of a constant concentration of CXCR4 specific antibody (clone 12G5). After 2 h, bound antibody was analyzed by flow cytometry. a, c, e) Representative dose-dependent replacement of 12G5 antibody by peptides. b, d, f) IC50 values were calculated by nonlinear regression. Shown are data derived from at least three individual experiments ± SEM. IC50 values were set to 1000 µM (EPI-X4 and WSC02) or 100 µM (JM#21) if the value exceeds the maximally used concentration. *p ≤ 0.05, ***p ≤ 0.001 (one-way ANOVA for comparison with wt). For IC50 values see Table 1. For all binding curves see also Fig. S8.
(§2) Mutated CXCR4 constructs were transfected into 293 T cells that have a very low endogenous expression level of wild-type CXCR4. Transfected cells were then analyzed for CXCR4 surface expression (Fig. S5a) and EPI-X4 binding using a flow cytometry-based antibody competition assay (Fig. S5b, c)[33]. […]

Assay [2] relates to CXCR4 E288D. As to the kind of experiment: 12G5 antibody competition, 293T cells transfected with CXCR4 E288D. To be noted: IC50 on CXCR4 E288D relative to wt. The text has this:
The human CXCR4 gene (isoform 1 or b, NCBI Reference Sequence: NP_003458.1, UniProtKB/Swiss-Prot: P61073-1) was amplified by PCR of the pTrip_GFP_CXCR4 vector (kindly provided by Prof. Françoise Bachelerie, Paris, France) by generating the flanking single cutter sites NheI and HindIII. The PCR fragment was ligated in the empty pcDNA3.1(+) vector (Life Technologies GmbH, Darmstadt). Afterward, the IRES-eGFP cassette of the proviral clone pBR_NL4-3_IRES-eGFP[44] was PCR-amplified with EcoRI and NotI single cutter sites and ligated in the multiple cloning site after CXCR4. […]
To test for peptide interaction with CXCR4, 50,000 SupT1 cells were seeded in 96-well microtiter plates in PBS supplemented with 1% FCS, the buffer was removed and cells were precooled at 4 °C. […] Afterward, the unbound antibody was removed and cells analyzed by flow cytometry. The mean fluorescence intensity (MFI) was normalized to the PBS control. […] IC50 values were determined by nonlinear regression using GraphPad Prism. […] For analysis, after flow cytometry, eGFP expressing cells were gated and further analyzed. CXCR4 expression levels and antibody binding to CXCR4 was determined using the CXCR4 antibody clones 12G5 (binds to the second ECL loop) (#555976, BD PharmingenTM) and 1D9 (binds to the N-terminus) (#551510, BD PharmingenTM) (Supplement Figure S5). […]

Assay [3] concerns CXCR4 D97E + V112L. Kind of assay: 12G5 antibody competition, 293T cells transfected with CXCR4 D97E + V112L. To be noted: IC50 on CXCR4 D97E + V112L relative to wt. How it is done:
as §1, §2

With “IVRWSKKVPCVS [WSC02, first-generation C-terminally truncated 12-mer derivative of EPI-X4 with four substitutions]”, the Fold change is recorded as 0.6 in assay [1], 74 in assay [2] and 1.8 in assay [3].
